Test results from patent US20040005327A1, “Immune T-cell stimulation” (priority 2002, published 2004).
Where “and” joins values, the source holds several entries; their conditions need not be identical. Identical values can stand only once.

System: T-lymphocytes
Experiment: Blastogenesis of T-cells, 3H-thymidine incorporation
Format: cell-based
Details: for 3H-thymidine incorporation/well / Stimulation Index: PHA 5 μg/ml
Experimental: Dilutions of PHA were prepared from 1:100 to 1:1000 and the dilutions were added to mycro-plate system lymphocyte cultures. Phytohemaglutinin, Pockeweed antigen and A Concanavalin were added to identified wells. After the culture period, T-lymphocytes proliferation was determined by radioactive tymidine uptake assay.
The present study compared the mitogenic effect of hyperimmune whole egg and a partially purified fraction of the hyperimmune egg (less then 3K fraction described in Example 2) against control medium alone. The hyperimmune whole egg was tested at varying concentrations that include 0.24, 0.98, 3.9, 15.6, 62.5 and 250 μg/ml. The purified less than 3K fraction from the hyperimmune egg was tested at 0.1, 0.2, 0.7, 2.0, 6.1, 18.4, 55.3 and 166.0 μg/ml concentrations. The Stimulating Index for hyperimmune whole egg, in accordance with the above concentrations, was 0.9, 0.8, 0.9, 0.9, 0.8, and 0.8 respectively, which corresponds, in the test conditions, to a cell population increase of 90, 80, 90, 90, 80 and 80% respectively. The Stimulating Index for the 3K purified fraction, in accordance with the above concentrations, was 1.1, 1.2, 1.5, 1.7, 1.4, 1.3, 1.0 and 1.2 respectively (see Table 2), which corresponds, in the test conditions, to a cell population increasing of 110, 120, 150, 170, 140, 130, 100 and 120% respectively.

[1] = single wells No. 1-6, first study
[2] = single wells No. 1-6, repeated study

With Phytohemaglutinin [PHA] the 3H-thymidine incorporation/well (AVE of 6 wells, first study) was 108028 cpm, the “Stimulation Index” value (AVE of 6 wells, first study) was 195.8 and the 3H-thymidine incorporation/well (AVE of 6 wells, repeated study) was 109901 cpm. The “Stimulation Index” value (AVE of 6 wells, repeated study) was 292.2, the 3H-thymidine incorporation/well [1] was 98898 cpm and 121212 cpm and 97149 cpm and 118218 cpm and 101241 cpm and 111452 cpm and the “Stimulation Index” value [1] was 179.2 and 219.7 and 176.0 and 214.2 and 183.5 and 202.0. For the same substance, the 3H-thymidine incorporation/well [2] was 110201 cpm and 121811 cpm and 97453 cpm and 112934 cpm and 102484 cpm and 114522 cpm, the “Stimulation Index” value [2] was 293.0 and 323.8 and 259.1 and 300.2 and 272.4 and 304.4 and the T-lymphocytes proliferation (PHA dilutions 1:100 to 1:1000, radioactive tymidine uptake) was “increased the proliferation of free mitogen lymphocytes intensively”.
